Test results as given in patent publication US20040087651A1, “Monoterpene as a chemopreventive agent for regression of mammalian nervous system cell tumors, use of monoterpene for causing regression and inhibition of nervous system cell tumors, and method for administration of monoterpene perillyl alcohol” (priority 2001, published 2004).

Experiments:
human glioma A 172 cells = assay: Cellular Proliferation Assay (MTT); type: cell-based
Protocol: (§1) a—Cell Culture: Human malignant gliomas U 87 and A 172 cells were obtained from the American Type Culture Collection (ATCC), and grown as monolayers on the at 37° C., in Dulbecco's Modified Eagle Medium supplemented with 0.2 mM nonessential amino acids, 10% (v/v) fetal calf serum, penicillin (100 UI/mL), streptomycin ([…]) and amphotericin B (Fungizone, […]). For subcultures, confluent monolayers were gently washed with Dulbecco's phosphate—buffered saline (PBS, pH 7.2), and after a short exposure to trypsin, the cells were transferred to a new bottle containing complete growth media.
(§2) Cellular Proliferation Assay: the target cells (human glioma U 87 and A 172) were cultivated in plates of 96 wells at a concentration of 5.0×10^5 cells by well. After the cellular adherence the cells were placed in multiple POH dilutions, in triplicates, having as positive control cells growing with detergent Tween 20. The negative control were cells growing without any additive. Concentrations varying from 30%, 3%, 0.03%, 0.003%, 0.0003% (v/v) were applied and after 24 hours of incubation 1.0 mg of hydrogen acceptor 3 (4,5 dimethylthiazol-2yi)-2-5 diphenyltetrazolium bromide (MTT) solution was added in each well, and the culture was incubated for additional 3 hours. […] An ELISA reader with 490 nm filter was used to read the results.

human glioma U 87 cells = assay: Cellular Proliferation Assay (MTT); type: cell-based
Protocol: as §1, §2

glial cell C6 = assay: Effect on glial cell C6 growth; type: cell-based, rats; details: various concentrations (FIG. 2)
A 172 cells = assay: Studies of cell morphology; type: cell-based, human; details: POH 0,3%
Protocol: (§3) Studies of cell morphology:_A 172 and U 87 cells were cultivated in plates of 6 wells. After 24 hours, perillyl alcohol was added to a final concentration of 0.3% (v/v). Monolayers of cells treated with POH were photographed by an optic microscope inverted NIKON TMS, to register morphological changes induced by the treatment. All studies of cell morphology were performed at least three times to ensure accurate interpretation.

U 87 cells = assay: Studies of cell morphology; type: cell-based, human; details: POH 0,3%
Protocol: as §3

A 172 glial cells = assay: Chorioallantoic Membrane (CAM) Assay, anti-metastatic activity; type: in vivo, human; details: A 172 cells exposed to POH 0,3% to 0,03% for 2 hours prior to inoculation in chick embryo chorioallantoic membrane
Protocol: (§4) After determination of cell concentration applying a Neubauer Chamber, 2×10^6 cells were incubated for 2 hours at 37° C., in D-MEM medium containing concentrations varying from […] or 3% of perillyl alcohol (Sigma), prior to inoculation on CAM.
(§5) b—Chorioallantoic Membrane (CAM) Assay: seven days old fertilized specific pathogen free chick eggs were used in this study. By transillumination in a dark chamber, the egg air camera was marked on the eggshell. The following procedures were done under aseptic conditions, in the laminar chamber. An opening was made in the upper part and another in the lateral part of the eggshell, and the air camera was mechanically displaced to the upper side by applying negative pressure at the lateral opening. Both openings were sealed. In the upper part of the egg, a small window was made. On the upper CAM, the cells were inoculated, with a sterile pipette. Eggs 1, 2 and 3 received 2×10^6 cells previously treated with POH (0.03, 0.3 and 3%, respectively) diluted D-MEM medium. Egg 4 received 2×10^6 untreated cells in D-MEM medium. Egg 5 was used as negative control (no cells inoculated). The windows were sealed and the eggs were kept at 37° C. and 60% humidity, in the horizontal position, without agitation, for seven days
(§6) Opening of the eggs. […]

U 87 glial cells = assay: as above; type: in vivo, human; details: U 87 cells exposed to POH 0,3% to 0,03% for 2 hours prior to inoculation in chick embryo chorioallantoic membrane
Protocol: as §4, §5, §6

glial cell lines = assay: Inhibition of protein expression in glial cell lines; type: cell-based; details: POH treatment in glial cell lines (FIG. 10: A 172)
rats [1] = details: rat, in vivo
rats [2] = details: perillyl alcohol diet; cited from earlier work

## C=C(C)[C@@H]1CC=C(CO)CC1 [perillyl alcohol, p-metha, 1,7-diene-6-ol or 4-isopropenyl-cyclohexanecarbinol]
Human glioma A 172 cells; POH 30%, 3%, 0,3% and 0,03%, preliminary in vitro studies
  proliferation of glioma cell lines: inhibits the proliferation
Human glioma A 172 cells; various concentrations (FIG. 4)
  cell growth: significantly inhibited cell growth in a dose dependent manner
Human glioma U 87 cells; U 87, POH 30%, 3%, 0,3% and 0,03%, preliminary in vitro studies
  proliferation of glioma cell lines: inhibits the proliferation
Human glioma U 87 cells; U87, various concentrations (FIG. 3)
  cell growth: significantly inhibited cell growth in a dose dependent manner
Glial cell C6
  cell growth: significantly inhibited cell growth in a dose dependent manner
A 172 cells
  cell morphology: changes in morphology, indicative of cellular differentiation
U 87 cells
  cell morphology: changes in morphology, indicative of cellular differentiation
A 172 glial cells
  anti-metastatic activity: anti metastatic activity
U 87 glial cells
  anti-metastatic activity: anti metastatic activity
Glial cell lines
  protein expression: inhibition protein expression
Rats [1]
  toxicity in tissues of lung, liver, and brain: no toxicity
Rats [2]
  maximum dose tolerated: 2,5%
